Assay: Differential scanning calorimetry (DSC), thermal stability
Assay type: physicochemical
Conditions: heating rate 10 K/min; judged from first endotherm
Method: Differential scanning calorimetry (DSC) was performed with a DSC 7 (Perkin-Elmer, Norwalk, Conn., USA) using a Pyris 2.0 software. 4.7307±0.0005 mg sample (using a UM3 ultramicrobalance, Mettler, Greifensee, CH) were weighed into Al-Pans (25 microliter) and sealed with a cover, which was perforated by a needle. The sample was heated at a rate of 10 K/min. Dry nitrogen was used as the purge gas (purge rate: 20 mL/min). Differential scanning calorimetry (DSC) was performed with a DSC 7 (Perkin-Elmer, Norwalk, Conn., USA) using a Pyris 2.0 software. 7.115±0.0005 mg sample (using a UM3 ultramicrobalance, Mettler, Greifensee, CH) were weighed into Al-Pans (25 microliter) and sealed with a cover, which was perforated by a needle. The sample was heated at a rate of 10 K/min. Dry nitrogen was used as the purge gas (purge rate: 20 mL/min).

stability against temperature stress (DSC): very stable against temperature stress
SMILES: COc1cc2c(cc1OC)[C@H]1C[C@@H](OC(=O)[C@@H](N)C(C)C)[C@H](CC(C)C)CN1CC2 [Example 1, ((S)-(2R,3R,11bR)-3-isobutyl-9,10-dimethoxy-2,3,4,6,7,11b-hexahydro-1H-pyrido[2,1-a]isoquinolin-2-yl 2-amino-3-methylbutanoate) ditosylate]

Reference: patent US10954235B2, “Crystalline forms of valbenazine salts” (Sandoz AG, priority 2017, dated 2021)
